Results from patent publication US11254654B2, “Heterochromatin gene repression inhibitors” (The University of North Carolina at Chapel Hill, priority 2017, dated 2022).
Counter-ions that a name gives are not always drawn.

Legend:
Format in all cases: cell-based, mouse
[1] = test system: HP1-mediated gene repression; experiment: UNC2524 structure-activity relationship assay, CiA:Oct4 N118/N163 flow cytometry; settings: 10 μM, 48 hrs
Description: Day 0, CiA:Oct4 N118/163 cells were grown in ES media and seeded at a density of 10,000 cells per well (100,000 cells/mL) into gelatin coated 96 well plates. Day 1, media was aspirated and replaced with 100 μL fresh ES media containing +/−6 nM rapamycin and 10 μM of each compound derived for SAR. Day 2, culture media was aspirated away and […] fresh ES media containing +/−6 nM rapamycin and 10 μM of compounds were added as on Day 1. Day 3, the media was aspirated out of the wells and the cells were washed with PBS and trypsinized using 0.25% trypsin-EDTA. Trypsin was quenched with serum. Cells were resuspended by pipetting to prepare the plates for flow cytometry analysis as described above.
Compounds 2-8 were chemically synthesized from UNC2524 (compound 1) (FIG. 10A). To ascertain the biological activity of these chemical derivatives, CiA:Oct4 N118/N163 cells were used. Cells were treated with rapamycin plus compounds 2 and 5-8 for 48-hours prior to analysis by flow cytometry. Compound activity was confirmed by an increase in % inhibition compared to control samples. Compounds 5 and 6 added a pentenal chain and BOC group to the piperidine ring while compound 7 substituted a hexyl chain for the pyrrolidine. […] Further, it was identified that the 7-methoxy side chain was amenable to modification with a benzene ring in compound 8, while preserving most of the biological activity (˜51%).
Referring to FIG. 10A, a series of compounds derived from compound 1 (UNC2524) were designed to optimize compound activity and determine amenability of compounds for affinity purification methods. Referring to FIG. 10B, CiA:Oct4 N118/N163 cells were treated with SAR compounds at 10 μM for 48 hrs+/−6 nM rapamycin. Flow cytometry analysis was used to determine the % GFP (+) population. […] (p≤0.05*, 0.01**).

[2] = test system: CiA:Oct4 N118/N163 cells; experiment: Compound 2 activity and fluorescence microscopy; settings: 7.5 μM, 48 hrs
Description: Day 0, CiA:Oct4 N118/N163 cells were plated into 96 well plate and 10 or 15 cm plate formats. Day 1, media was aspirated and replaced with fresh ES media +/−7.5 μM compound 2+/−6 nM rapamycin. Day 2, media was aspirated and replaced with fresh ES media +/−7.5 μM compound 2+/−6 nM rapamycin. Day 3, media was removed from 96 well plate and cells were washed with PBS prior to trypsinization and flow cytometry analysis as described above to confirm functional inhibition of compound 2.
Prior to imaging, ES media was removed from 10-15 cm plates and replaced with PBS to decrease background fluorescence. Cells were imaged using an Olympus IX71 microscope analyzed using Cellsens software. Representative images were taken in 2 random plate locations for each of the four conditions. Image levels were normalized using Adobe Photoshop.
In order to confirm that compound 2 was inhibiting H3K9me3 deposition, CiA:Oct4 N118/N163 cells were grown for 48-hours with rapamycin mediating HP1 recruitment, +/−compound 2 (FIG. 11G). Representative brightfield and fluorescence images were taken for the four sample types ((−) rapamycin/(−) compound 2, (−) rapamycin/(+) compound 2, (+) rapamycin/(−) compound 2, (+) rapamycin/(+) compound 2). […] Subsequently, all samples were analyzed by flow cytometry to confirm the inhibitory effects of compound 2 on HP1-mediated gene repression. […]

[3] = test system: H3K4me3; experiment: ChIP-qPCR at CiA:Oct4 locus, TSS+489; settings: 48 hr treatment, +/- rapamycin
Description: (§1) 10-15 cm plates of cells grown to confluence were washed with PBS and trypsinized 10 min with 0.25% trypsin-EDTA. ES media was added to quench the trypsin, and cells were resuspended prior to counting using a Countess II Automated Cell Counter (ThermoFisher). Cell suspension was centrifuged at 300×g for 5 min. Cell pellet was washed with PBS and pelleted at 300×g for 5 min. Cells were resuspended and crosslinked with 1% formaldehyde for 10 min. 2.5 M glycine (0.125 M final) was added and samples were put on ice to stop the crosslinking. Nuclei were isolated by incubating cells on ice for 10 min in CiA NP Rinse 1 (50 mM HEPES pH 8.0, 140 mM NaCl, 1 mM EDTA, 10% glycerol, 0.5% NP40, 0.25% Triton X100). Nuclei were pelleted at 1200×g for 5 min at 4° C. and resuspended in CiA NP Rinse 2 (10 mM Tris pH 8.0, 1 mM EDTA, 0.5 mM EGTA, 200 mM NaCl). Nuclei were pelleted at 1200×g for 5 min at 4° C. Nuclei were resuspended in shearing buffer (0.1% SDS, 1 mM EDTA pH 8, 10 mM Tris HCl, pH 8) and sonicated for 5 min using a Covaris sonicator (Hathaway et al., 2012). Input DNA and ChIP DNA was isolated according to Active Motif High Sensitivity ChIP-IT kit procedure. ChIP for H3K9me3 used Abcam (ab8898) primary antibody.
(§2) Enrichment of ChIP DNA was determined by qPCR. 384-well PCR plates contained 2 μL of template DNA and 8 μL of reaction mix of primers and FastStart Universal SYBR Green 2× master mix (Roche). Samples were run on a ViiA7 Real-Time PCR system (Applied Biosystems) (Pattenden et al., 2016). Plates were setup in technical duplicate or triplicate. Samples were analyzed using the comparative ΔΔCt method and normalized against an intergenic control region (Hathaway et al., 2012; Livak & Schmittgen, 2001). Experiment was performed in a minimum biological triplicate and data is representative of sample average. T-test were used to determine significant p-values.
(§3) To further characterize the effects of compound 2 on the HP1-heterochromatin pathway, perturbations in the levels of HP1γ, H3K4me3, and G9a at the CiA:Oct4 locus were assayed for using ChIP followed by […] analysis. Enrichment levels were determined at 489 bp downstream of the TSS and normalized to a house-keeping gene, intracisternal A-type particles (IAP). As shown previously, HP1γ functions similarly to HP1α in our inhibition assay. […] No change in H3K4me3 levels were detected upon compound 2 treatment despite the decrease in H3K9me3 (FIG. 11E). […]
(§4) Referring to FIG. 11A, CiA:Oct4 csHP1α recruiting cells were incubated with 7.5 μM compound 2+/−6 nM rapamycin for 48 hrs and representative brightfield and GFP fluorescence images were acquired at 20×. […] GFP expression was analyzed by flow cytometry. […]

[4] = test system: HP1γ; experiment: ChIP-qPCR at CiA:Oct4 locus, TSS+489
Description: as §1, §2, §3, §4

[5] = test system: G9a; experiment: ChIP-qPCR at CiA:Oct4 locus, TSS+489; settings: four treatment conditions
Description: as §1, §2, §3, §4

[6] = test system: H3K9me3; experiment: ChIP-qPCR at CiA:Oct4 locus, TSS+489; settings: 48 hr, + 6 nM rapamycin, 489 bp downstream of TSS
Description: 10-15 cm plates of cells grown to confluence were washed with PBS and trypsinized 10 min with 0.25% trypsin-EDTA. ES media was added to quench the trypsin, and cells were resuspended prior to counting using a Countess II Automated Cell Counter (ThermoFisher). Cell suspension was centrifuged at 300×g for 5 min. Cell pellet was washed with PBS and pelleted at 300×g for 5 min. Cells were resuspended and crosslinked with 1% formaldehyde for 10 min. 2.5 M glycine (0.125 M final) was added and samples were put on ice to stop the crosslinking. […]
Enrichment of ChIP DNA was determined by qPCR. […] Samples were analyzed using the comparative ΔΔCt method and normalized against an intergenic control region (Hathaway et al., 2012; Livak & Schmittgen, 2001). […]
Chromatin immunoprecipitation (ChIP) was used to determine the levels of H3K9me3 at the Oct4 locus upon treatment with compound 2. […] For this reason, the levels of H3K9me3 were analyzed at 489 bp downstream of the TSS in all four sample conditions. qPCR was used to amplify this region in addition to an intergenic control region. […]
as §4

SMILES: COc1cc2nc(N3CCCC3)nc(N[C@@H]3CCCNC3)c2cc1OC [compound 2, (R)-6,7-Dimethoxy-N-(Piperidin-3-yl)-2-(Pyrrolidin-1-yl)Quinazolin-4-Amine Trifluoroacetic Acid Salt]
- % inhibition compared with parent compound 1 ([1]; + 6 nM rapamycin): increase in activity over the parent
- ES cell differentiation and colony morphology ([2]; +/- 6 nM rapamycin): did not result in gross cell differentiation or effect colony morphology
- GFP expression by flow cytometry compared to untreated controls ([2]; with and without rapamycin): increased GFP expression
- Change in H3K4me3 levels [3]: No change
- Increase of HP1γ levels compared to controls ([4]; compound alone, no HP1 recruitment): 46%
- Decrease of HP1γ levels compared to HP1 recruitment alone ([4]; with HP1 recruitment (rapamycin)): 37%
- Change in G9a levels [5]: No significant changes
- Decrease of H3K9me3 enrichment compared to plus rapamycin control [6]: ~9 fold

SMILES: C=CCCCN1CCC[C@H](Nc2nc(N3CCCC3)nc3cc(OC)c(OC)cc23)C1 [compound 5, (S)-6,7-Dimethoxy-N-(1-(Pent-4-en-1-yl)Piperidin-3-yl)-2-(Pyrrolidin-1-yl)Quinazolin-4-Amine, Trifluoroacetic Acid Salt]
- % inhibition compared with parent compound 1 ([1]; + 6 nM rapamycin): decrease in inhibition

SMILES: COc1cc2nc(N3CCCC3)nc(N[C@@H]3CCCN(C(=O)OC(C)(C)C)C3)c2cc1OC [compound 6, Tert-Butyl (R)-3-((6,7-Dimethoxy-2-(Pyrrolidin-1-yl)Quinazolin-4-yl)Amino)Piperidine-1-Carboxylate]
- % inhibition compared with parent compound 1 ([1]; + 6 nM rapamycin): decrease in inhibition

SMILES: CCCCCCNc1nc(N[C@H]2CCCNC2)c2cc(OC)c(OC)cc2n1 [compound 7, (S)—N^2-Hexyl-6,7-Dimethoxy-N^4-(Piperidin-3-yl)Quinazoline-2,4-Diamine]
- Toxicity in SAR assay [1]: toxicity and low cell counts
- % inhibition compared with parent compound 1 ([1]; + 6 nM rapamycin): decrease in inhibition

SMILES: COc1cc2c(N[C@H]3CCCNC3)nc(N3CCCC3)nc2cc1OCCCN1CCCCC1 [compound 8, (S)-6-Methoxy-7-(3-(Piperidin-1-yl)Propoxy)-N-(Piperidin-3-yl)-2-(Pyrrolidin-1-yl)Quinazolin-4-Amine Trifluoroacetic Acid Salt]
- Biological activity preserved ([1]; + 6 nM rapamycin): ~51%
